Measurements taken from ChEMBL document CHEMBL1255229, “Novel antimicrobial peptides that exhibit activity against select agents and other drug resistant bacteria” (2010).
≈ marks a conversion by molar mass, not a printed value. Starred links: 1 amine or outer side, 2 acyl side, 3 side chain; linkers in the order of their positions; H or OH if unused. Non-standard residues stand in square brackets, D forms with d. Residues, ends and D or L forms follow the SMILES beside them. ξ: configuration not given here. Pro(3ξ,4ξ-(CH2)4) = O=C(O)[C@H]1NCC2CCCCC21; X1 = O=C([C@@H]1CN([*:1])C2CCCCC21)[*:2]; X2 = O=C([C@H]1CN([*:1])C2CCCCC21)[*:2]; Phe(4-F) = N[C@@H](Cc1ccc(F)cc1)C(=O)O; Tic = O=C(O)[C@@H]1Cc2ccccc2CN1; Orn = NCCC[C@H](N)C(=O)O; Ahx = NCCCCCC(=O)O

Key:
Type in all cases: functional
[1] = tested on: Brucella melitensis; test: Antimicrobial activity against Brucella melitensis 16 M after 24 hrs
[2] = tested on: Brucella abortus; test: Antimicrobial activity against Brucella abortus 2308 after 24 hrs; conditions: Brucella abortus, 2308, 24 h
[3] = tested on: Brucella suis; test: Antimicrobial activity against Brucella suis ATCC 23445 after 24 hrs; conditions: ATCC 23445, 24 h
[4] = tested on: Bacillus anthracis; test: Antimicrobial activity against Bacillus anthracis Ames after 24 hrs
[5] = tested on: Acinetobacter baumannii; test: Antimicrobial activity against Acinetobacter baumannii WRAIR after 24 hrs
[6] = tested on: Acinetobacter baumannii; test: Antimicrobial activity against Acinetobacter baumannii ATCC 19606 after 24 hrs; conditions: ATCC 19606 = CIP 70.34 = JCM 6841, 24 h
[7] = tested on: Staphylococcus aureus; test: Antimicrobial activity against methicillin-resistant Staphylococcus aureus ATCC 33591 after 24 hrs; conditions: ATCC 33591, 24 h
[8] = tested on: Francisella tularensis; test: Antimicrobial activity against Francisella tularensis SCHU-S4 after 24 hrs; conditions: SCHU-S4, 24 h
[9] = tested on: Yersinia pestis; test: Antimicrobial activity against Yersinia pestis CO92 after 24 hrs; conditions: CO92, 24 h
[10] = tested on: Burkholderia pseudomallei; test: Antimicrobial activity against Burkholderia pseudomallei BURK003(1026b) after 24 hrs
[11] = tested on: Burkholderia mallei; test: Antimicrobial activity against Burkholderia mallei ATCC 23444 after 24 hrs; conditions: ATCC 23444, 24 h

## CC(=O)NCC(=O)N[C@@H](Cc1ccccc1)C(=O)N1Cc2ccccc2C[C@H]1C(=O)N1C[C@@H](C(=O)NCC(=O)N[C@@H](CCCN)C(=O)N2Cc3ccccc3C[C@H]2C(=O)N2C[C@@H](C(=O)NCC(=O)N[C@@H](Cc3ccccc3)C(=O)N3Cc4ccccc4C[C@H]3C(=O)N3C[C@@H](C(=O)NCC(=O)N[C@@H](CCCN)C(=O)N4Cc5ccccc5C[C@H]4C(=O)N[C@@H](CCCN)C(=O)N[C@@H](CCCN)C(=O)N[C@@H](CCCN)C(=O)N[C@@H](CCCN)C(N)=O)C4CCCCC43)C3CCCCC32)C2CCCCC21 (stereo not given in full) (Ac-GF[Tic][X1]G[Orn][Tic][X1]GF[Tic][X1]G[Orn][Tic][Orn][Orn][Orn][Orn]-NH2)
[1]
  MIC: 106 µM (≈ 250 µg/mL)
[2]
  MIC: 106 µM (≈ 250 µg/mL)
[3]
  MIC: 106 µM (≈ 250 µg/mL)
[4]
  MIC: 0.82 µM (≈ 1.93 µg/mL)
[5]
  MIC: 6.6 µM (≈ 15.6 µg/mL)
[6]
  MIC: 6.6 µM (≈ 15.6 µg/mL)
[7]
  MIC: 53 µM (≈ 125 µg/mL)
[8]
  MIC: 106 µM (≈ 250 µg/mL)
[9]
  MIC: 26.5 µM (≈ 62.5 µg/mL)
[10]
  MIC: 212 µM (≈ 500 µg/mL)
[11]
  MIC: 212 µM (≈ 500 µg/mL)

## CC(=O)NCC(=O)N[C@@H](Cc1ccccc1)C(=O)N1C[C@@H](C(=O)N2C[C@H](C(=O)NCC(=O)N[C@@H](CCCCN)C(=O)N3C[C@@H](C(=O)N4C[C@@H](C(=O)NCC(=O)N[C@@H](Cc5ccccc5)C(=O)N5C[C@@H](C(=O)N6C[C@@H](C(=O)NCC(=O)N[C@@H](CCCCN)C(=O)N7Cc8ccccc8C[C@H]7C(=O)N[C@@H](CCCCN)C(=O)N[C@@H](CCCCN)C(=O)N[C@@H](CCCCN)C(=O)N[C@@H](CCCCN)C(N)=O)C7CCCCC76)C6CCCCC65)C5CCCCC54)C4CCCCC43)C3CCCCC32)C2CCCCC21 (stereo not given in full) (Ac-GF[X1][X2]GK[X1][X1]GF[X1][X1]GK[Tic]KKKK-NH2)
[1]
  MIC: 207 µM (≈ 500 µg/mL)
[2]
  MIC: 207 µM (≈ 500 µg/mL)
[3]
  MIC: 207 µM (≈ 500 µg/mL)
[4]
  MIC: 26 µM (≈ 62.8 µg/mL)
[5]
  MIC: 3.2 µM (≈ 7.73 µg/mL)
[6]
  MIC: 3.2 µM (≈ 7.73 µg/mL)
[7]
  MIC: 207 µM (≈ 500 µg/mL)
[8]
  MIC: 104 µM (≈ 251 µg/mL)
[9]
  MIC: 207 µM (≈ 500 µg/mL)
[10]
  MIC: 207 µM (≈ 500 µg/mL)
[11]
  MIC: 207 µM (≈ 500 µg/mL)

## CC(=O)NCC(=O)N[C@@H](Cc1ccc(F)cc1)C(=O)N1Cc2ccccc2C[C@H]1C(=O)N1CC2CCCCC2[C@H]1C(=O)NCC(=O)N[C@@H](CCCCN)C(=O)N1Cc2ccccc2C[C@H]1C(=O)N1CC2CCCCC2[C@H]1C(=O)NCC(=O)N[C@@H](Cc1ccc(F)cc1)C(=O)N1Cc2ccccc2C[C@H]1C(=O)N1CC2CCCCC2[C@H]1C(=O)NCC(=O)N[C@@H](CCCCN)C(=O)N1Cc2ccccc2C[C@H]1C(=O)N[C@@H](CCCCN)C(=O)N[C@@H](CCCCN)C(=O)N[C@@H](CCCCN)C(=O)N[C@@H](CCCCN)C(N)=O (stereo not given in full) (Ac-G[Phe(4-F)][Tic][Pro(3ξ,4ξ-(CH2)4)]GK[Tic][Pro(3ξ,4ξ-(CH2)4)]G[Phe(4-F)][Tic][Pro(3ξ,4ξ-(CH2)4)]GK[Tic]KKKK-NH2)
[1]
  MIC: 202 µM (≈ 500 µg/mL)
[2]
  MIC: 202 µM (≈ 500 µg/mL)
[3]
  MIC: 202 µM (≈ 500 µg/mL)
[4]
  MIC: 12.6 µM (≈ 31.2 µg/mL)
[5]
  MIC: 6.2 µM (≈ 15.4 µg/mL)
[6]
  MIC: 3.1 µM (≈ 7.68 µg/mL)
[7]
  MIC: 101 µM (≈ 250 µg/mL)
[8]
  MIC: 202 µM (≈ 500 µg/mL)
[9]
  MIC: 202 µM (≈ 500 µg/mL)
[10]
  MIC: 202 µM (≈ 500 µg/mL)
[11]
  MIC: 202 µM (≈ 500 µg/mL)

## CC(=O)N[C@@H](CCCCN)C(=O)N[C@@H](CCCCN)C(=O)N[C@@H](CCCCN)C(=O)N[C@@H](CCCCN)C(=O)NCC(=O)N[C@@H](Cc1ccccc1)C(=O)N1Cc2ccccc2C[C@H]1C(=O)N1C[C@@H](C(=O)NCC(=O)N[C@@H](CCCCN)C(=O)N2Cc3ccccc3C[C@H]2C(=O)N2C[C@@H](C(=O)NCC(=O)N[C@@H](Cc3ccccc3)C(=O)N3Cc4ccccc4C[C@H]3C(=O)N3C[C@@H](C(=O)NCC(=O)N[C@@H](CCCCN)C(=O)N4Cc5ccccc5C[C@H]4C(N)=O)C4CCCCC43)C3CCCCC32)C2CCCCC21 (stereo not given in full) (Ac-KKKKGF[Tic][X1]GK[Tic][X1]GF[Tic][X1]GK[Tic]-NH2)
[1]
  MIC: 51 µM (≈ 124 µg/mL)
[2]
  MIC: 51 µM (≈ 124 µg/mL)
[3]
  MIC: 25.6 µM (≈ 62.5 µg/mL)
[4]
  MIC: 0.4 µM (≈ 0.976 µg/mL)
[5]
  MIC: 12.8 µM (≈ 31.2 µg/mL)
[6]
  MIC: 12.8 µM (≈ 31.2 µg/mL)
[7]
  MIC: 102 µM (≈ 249 µg/mL)
[8]
  MIC: 51 µM (≈ 124 µg/mL)
[9]
  MIC: 13.1 µM (≈ 32 µg/mL)
[10]
  MIC: 204 µM (≈ 498 µg/mL)
[11]
  MIC: 204 µM (≈ 498 µg/mL)

## CC(=O)NCCCCCC(=O)N[C@@H](Cc1ccccc1)C(=O)N1Cc2ccccc2C[C@H]1C(=O)N1CC2CCCCC2[C@H]1C(=O)NCCCCCC(=O)N[C@@H](CCCCN)C(=O)N1Cc2ccccc2C[C@H]1C(=O)N1CC2CCCCC2[C@H]1C(=O)NCCCCCC(=O)N[C@@H](Cc1ccccc1)C(=O)N1Cc2ccccc2C[C@H]1C(=O)N1CC2CCCCC2[C@H]1C(=O)NCCCCCC(=O)N[C@@H](CCCCN)C(=O)N1Cc2ccccc2C[C@H]1C(=O)N[C@@H](CCCCN)C(=O)N[C@@H](CCCCN)C(=O)N[C@@H](CCCCN)C(=O)N[C@@H](CCCCN)C(N)=O (stereo not given in full) (Ac-[Ahx]F[Tic][Pro(3ξ,4ξ-(CH2)4)][Ahx]K[Tic][Pro(3ξ,4ξ-(CH2)4)][Ahx]F[Tic][Pro(3ξ,4ξ-(CH2)4)][Ahx]K[Tic]KKKK-NH2)
[1]
  MIC: 93 µM (≈ 248 µg/mL)
[2]
  MIC: 12 µM (≈ 32 µg/mL)
[3]
  MIC: 47 µM (≈ 125 µg/mL)
[4]
  MIC: 1.5 µM (≈ 4 µg/mL)
[5]
  MIC: 2.9 µM (≈ 7.73 µg/mL)
[6]
  MIC: 5.9 µM (≈ 15.7 µg/mL)
[7]
  MIC: 187 µM (≈ 498 µg/mL)
[8]
  MIC: 23.4 µM (≈ 62.4 µg/mL)
[9]
  MIC: 23.4 µM (≈ 62.4 µg/mL)
[10]
  MIC: 187 µM (≈ 498 µg/mL)
[11]
  MIC: 187 µM (≈ 498 µg/mL)
